{
  "source": "patent US9676820B2",
  "about": "“Method for inhibiting proliferation of high LIX1L-expressing tumor cell, and tumor cell proliferation-inhibiting peptide” (National University Corporation Hamamatsu University School …, priority 2013, dated 2017)",
  "format_in_all_cases": "cell-based",
  "key": {"136th tyrosine of LIX1L": {"target": "T1, 136th tyrosine of LIX1L (Homo sapiens, UniProt Q8IVB5)", "T1 construct": "expressed in transfected cells", "T1 sequence (Q8IVB5 with tags, fused parts or gaps)": "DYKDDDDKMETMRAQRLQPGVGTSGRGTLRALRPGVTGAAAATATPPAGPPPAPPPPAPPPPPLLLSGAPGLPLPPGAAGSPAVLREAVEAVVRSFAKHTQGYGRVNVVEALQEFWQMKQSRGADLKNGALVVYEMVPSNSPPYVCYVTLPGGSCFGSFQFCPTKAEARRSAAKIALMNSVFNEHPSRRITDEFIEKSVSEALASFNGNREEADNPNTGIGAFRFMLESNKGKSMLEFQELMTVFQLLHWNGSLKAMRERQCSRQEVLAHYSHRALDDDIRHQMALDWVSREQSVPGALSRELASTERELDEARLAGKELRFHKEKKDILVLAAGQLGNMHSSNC", "test": "Tyrosine phosphorylation of LIX1L by immunoprecipitation and Western blotting in 293 FLG/LIX1L cells", "conditions": "cultured 14 days with peptide", "protocol": "First, a cell strain (293 FLG) in which only FLAG was forcibly expressed, a cell strain (293 FLG/LIX1L) in which a LIX1L protein with a FLAG tag was forcibly expressed, and a cell strain (293 FLG/LIX1L/PY136) in which a LIX1L protein with a FLAG tag for adding a peptide thereto was forcibly expressed were prepared through the same method as Reference Example 5, and were cultured and proliferated.\nNext, the 293 FLG/LIX1L/PY136 cells were cultured for 14 days in a culture solution containing a peptide 1 through the same method as that in Example 3. The 293 FLG cells and the 293 FLG/LIX1L cells were cultured for 14 days in the same manner as above using a culture solution containing no peptide 1.\nNext, the 293 FLG cells, the 293 FLG/LIX1L cells, and the 293 FLG/LIX1L/PY136 cells were respectively cultured in 10% FCS-containing DMEM culture media to which Hygromycin B at […] was added, for 14 days. Then, the cultured cells were separated into nuclear fractions and cytoplasm fractions using Nuclear/Cytosol Fractionation Kit (manufactured by BioVison, Inc.). Immunoprecipitation was performed on both the obtained fractions using an anti-FLAG antibody (manufactured by Sigma-Aldorich Co. LLC.) and an agarose-binding protein A (manufactured by Sigma-Aldorich Co. LLC.), protein separation was performed thereon through 12% SDS-PAGE, and the fractions were transferred to a film. […]"}, "293 FLG": {"system": "293 FLG", "test": "MTT assay, 293 FLG cells", "protocol": "Specifically, first, cells plated in a 96-well microplate such that the density thereof became 5×10^3 cells/well were cultured for one night in a culture solution having the same composition as those in the reference examples. […] After the culturing, an MTT-containing PBS solution was added to the culture solution, and the mixture was incubated for 4 hours. Then, formazan which was generated by putting 100 μL of isopropanol (containing 34 (v/v) % of hydrochloric acid) into each of the wells was dissolved. The absorbance of each of the wells of the microplate at 570 nm was measured using a microplate reader. As controls, culturing was performed in the same manner except that no peptide was added to the strains, an MTT assay was performed thereon, and the absorbance at 570 nm was measured (untreated).\nIn the method for measuring the viable cell counts, cells were cultured for 3 days similarly to Example 1 except that a 25 μM (10 μM for an HL-60 strain, a K562 strain, and a U937 strain) culture solution containing a control peptide or a peptide 1 was used, and the viable cell counts were measured. As a comparison, culturing was performed similarly to the above using a culture solution containing no peptide, and the viable cell counts were measured (untreated).\nIn addition, in the method for performing an MTT assay, cells were cultured for 72 hours similarly to Example 2 except that a peptide to be added to a strain was set to a control peptide or a peptide 1 at 25 μM (10 μM for an HL-60 strain, a K562 strain, and a U937 strain), an MTT assay was performed thereon, and the absorbance at 570 nm was measured. As a comparison, culturing was performed similarly to the above using a culture solution containing no peptide, and the MTT assay was performed thereon (untreated).\nSpecifically, the cells were cultured for 72 hours similarly to Example 2 except that a peptide to be added to a cell was set to a peptide 1, 2, 5, or 6, MTT assays were performed thereon, and the absorbance at 570 nm was measured. As a comparison, culturing was performed similarly to the above using a culture solution containing no peptide, and the MTT assay was performed thereon (untreated).\nSpecifically, the cells were cultured for 72 hours similarly to Example 2 except that peptides to be added to cell strains were set to peptides 7 to 14, MTT assays were performed thereon, and the absorbance at 570 nm was measured. […]\nSpecifically, the cells were cultured for 72 hours similarly to Example 2 except that a peptide to be added to a cell strain was set to a peptide 15 or 16, an MTT assay was performed thereon, and the absorbance at 570 nm was measured. […]"}, "293 FLG/LIX1L": {"system": "293 FLG/LIX1L", "test": "Colony formation assay (agarose), 293 FLG/LIX1L cells (Example 9)", "conditions": "293 FLG/LIX1L/PY136 cells, 14 days", "protocol": "In the colony formation assay, the 293 FLG cells, the 293 FLG/LIX1L cells, and the 293 FLG/LIX1L/PY136 cells were respectively mixed in 10% FCS-containing DMEM culture media, to which 0.4% agarose was added, and the mixtures were gently placed on 0.6% agarose- and 10% FCS-containing DMEM culture media for culturing for 14 days. Thereafter, the influence of LIX1L and PY136 on cell proliferation was evaluated by counting the number of colonies in each well using an optical microscope (manufactured by Zeiss)."}},
  "data": [
    {"smiles": "CC(C)[C@H](NC(=O)[C@H](Cc1ccc(O)cc1)NC(=O)[C@H](CS)NC(=O)[C@@H](NC(=O)[C@H](Cc1ccc(O)cc1)NC(=O)[C@@H]1CCCN1C(=O)[C@@H]1CCCN1C(=O)[C@H](CO)NC(=O)[C@H](CC(N)=O)NC(=O)[C@H](CO)NC(=O)[C@@H]1CCCN1C(=O)CCCCCNC(=O)[C@H](CCCNC(=N)N)NC(=O)[C@H](CCCNC(=N)N)NC(=O)[C@H](CCCNC(=N)N)NC(=O)[C@H](CCC(N)=O)NC(=O)[C@H](CCCNC(=N)N)NC(=O)[C@H](CCCNC(=N)N)NC(=O)[C@H](CCCCN)NC(=O)[C@H](CCCCN)NC(=O)[C@H](CCCNC(=N)N)NC(=O)CNC(=O)[C@@H](N)Cc1ccc(O)cc1)C(C)C)C(N)=O", "note": "[peptide 1, YGRKKRRQRRR-X-PSNSPPYVCYV-NH2]", "values": [
      {"measurement": "phosphorylation of the 136th tyrosine of LIX1L", "setting": "136th tyrosine of LIX1L; cytoplasm fraction of 293 FLG/LIX1L/PY136 cell", "value": "significantly inhibited"},
      {"measurement": "phosphorylation of the 136th tyrosine of LIX1L", "setting": "136th tyrosine of LIX1L; nuclear fraction of 293 FLG/LIX1L/PY136 cell", "value": "slightly inhibited"},
      {"measurement": "cell proliferation (MTT assay, absorbance at 570 nm)", "setting": "293 FLG; 72 hours, peptide concentrations up to 250 μM", "value": "inhibited"},
      {"measurement": "cell proliferation (viable cell counts and MTT assay)", "setting": "293 FLG; peptide 25 μM, 3 days / 72 hours", "value": "not inhibited"},
      {"measurement": "formation of colonies (colony formation assay)", "setting": "293 FLG/LIX1L", "value": "significantly inhibited"}
    ]}
  ]
}
